In one assay the target is PARP2 (Homo sapiens (Human), UniProt Q9UGN5). The assay can be described thus: PARP2 FP Assay. The conditions noted are these: PARP2 fluorescence polarization probe assay, 4 hours at room temperature. It is filed as binding. (In general: Fluorescence polarisation rises when a labelled molecule tumbles more slowly, as on binding a larger partner.)
For the next assay, the target named is PARP1 (Homo sapiens (Human), UniProt P09874). The assay can be described thus: PARP1 FP Assay. It is filed as binding. The conditions noted are these: PARP1 fluorescence polarization probe assay, 4 hours at room temperature. The protocol: Compounds were dissolved and 4-fold serially diluted in DMSO. Compounds were transferred by an Echo to the assay plate to reach final concentrations ranging from 10 μM to 0.01 nM.
Assay buffer was composed of 50 mM Tris pH 8.0, 10 mM MgCl2, 150 mM NaCl and 0.001% Triton X100.

Assay [1] relates to PARylation level in MDA-MB-436. The assay can be described thus: PARPylation MSD Assay on MDA-MB-436. The assay is classed as cell-based. Conditions: Homo sapiens; MDA-MB-436 cells, 4 hours incubation with compound, electrochemiluminescent (MSD) detection of PARylation. The protocol:
Compounds were dissolved and 4-fold serially diluted in DMSO.
Plates were incubated for 1 hour at room temperature, with shaking. […] Plates were incubated for 1 hour at room temperature, with shaking.

A value given as a limit tells only on which side of the number the result lay.

Chain of PARP1 (P09874 whole entry): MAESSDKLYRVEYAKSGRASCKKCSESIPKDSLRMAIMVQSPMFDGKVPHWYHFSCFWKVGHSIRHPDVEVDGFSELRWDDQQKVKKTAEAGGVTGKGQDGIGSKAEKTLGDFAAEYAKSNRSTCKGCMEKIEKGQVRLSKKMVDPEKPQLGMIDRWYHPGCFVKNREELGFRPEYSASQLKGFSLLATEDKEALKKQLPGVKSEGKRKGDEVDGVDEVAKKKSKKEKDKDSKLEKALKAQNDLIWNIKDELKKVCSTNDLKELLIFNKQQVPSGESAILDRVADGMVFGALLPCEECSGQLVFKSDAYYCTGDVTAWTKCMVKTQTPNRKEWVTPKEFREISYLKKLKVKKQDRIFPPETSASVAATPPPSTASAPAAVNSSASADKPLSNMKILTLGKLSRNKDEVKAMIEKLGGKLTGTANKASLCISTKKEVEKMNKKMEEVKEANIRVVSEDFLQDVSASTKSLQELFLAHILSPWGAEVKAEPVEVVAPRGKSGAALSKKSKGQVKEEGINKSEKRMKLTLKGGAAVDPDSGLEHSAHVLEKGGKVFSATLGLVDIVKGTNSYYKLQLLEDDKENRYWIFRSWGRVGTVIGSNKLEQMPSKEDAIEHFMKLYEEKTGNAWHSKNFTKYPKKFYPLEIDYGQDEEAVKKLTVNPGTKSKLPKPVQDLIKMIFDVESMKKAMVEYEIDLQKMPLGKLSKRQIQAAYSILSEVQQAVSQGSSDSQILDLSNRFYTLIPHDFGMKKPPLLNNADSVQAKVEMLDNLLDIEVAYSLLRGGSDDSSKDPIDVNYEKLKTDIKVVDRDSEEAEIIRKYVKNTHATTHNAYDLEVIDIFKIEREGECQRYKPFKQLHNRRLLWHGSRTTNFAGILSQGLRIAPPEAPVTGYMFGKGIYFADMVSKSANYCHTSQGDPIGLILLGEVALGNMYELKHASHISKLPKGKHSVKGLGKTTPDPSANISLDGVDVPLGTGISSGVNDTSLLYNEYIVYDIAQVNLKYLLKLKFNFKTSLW
Chain of PARP2 (Q9UGN5 whole entry): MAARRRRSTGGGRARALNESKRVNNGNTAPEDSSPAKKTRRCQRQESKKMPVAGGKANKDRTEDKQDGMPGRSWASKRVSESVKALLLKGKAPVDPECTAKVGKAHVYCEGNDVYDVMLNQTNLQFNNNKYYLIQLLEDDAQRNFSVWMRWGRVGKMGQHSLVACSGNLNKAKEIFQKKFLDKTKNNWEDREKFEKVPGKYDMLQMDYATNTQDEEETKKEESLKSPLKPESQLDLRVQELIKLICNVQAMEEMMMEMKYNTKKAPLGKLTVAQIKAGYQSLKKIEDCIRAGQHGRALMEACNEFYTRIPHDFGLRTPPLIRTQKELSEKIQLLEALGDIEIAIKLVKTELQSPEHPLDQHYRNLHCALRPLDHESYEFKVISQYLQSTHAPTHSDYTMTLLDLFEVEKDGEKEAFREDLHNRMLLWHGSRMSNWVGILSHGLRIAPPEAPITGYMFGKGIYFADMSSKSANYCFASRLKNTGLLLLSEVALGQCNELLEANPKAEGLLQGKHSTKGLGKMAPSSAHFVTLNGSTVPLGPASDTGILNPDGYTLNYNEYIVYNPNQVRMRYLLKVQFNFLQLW

As a reminder, the IC50 is the concentration that inhibits the measured activity by half. As to `CCc1cc2ncc([S@](=N)(=O)C3CCN(c4ccc(C(=O)NC)nc4)CC3)cc2[nH]c1=O` (single isomer, unassigned) [Compound 2.7], the IC50 on PARP2 is more than 10000 nM; against PARP1 it was 6.89 nM; in assay [1], 10.8 nM.

Take `CCc1cc2ncc([S@@](=N)(=O)C3CCN(c4ccc(C(=O)NC)nc4)CC3)cc2[nH]c1=O` (single isomer, unassigned) [Compound 2.8]: the IC50 against PARP2 was more than 10000 nM; on PARP1 it was 8.66 nM; in assay [1], 0.515 nM.

Turning to `CCc1cc2ncc(S(=O)(=O)N3CCN(c4ccc(F)cc4F)CC3)cc2[nH]c1=O` [Compound 2.6, 7-((4-(2,4-difluorophenyl)piperazin-1-yl)sulfonyl)-3-ethyl-1,5-naphthyridin-2(1H)-one], the IC50 at PARP2 was more than 10000 nM; on PARP1, more than 10000 nM; in assay [1] it was more than 1000 nM.

(Values after US20240228486A1, “SULFONE- AND SULFOXIMINE-BASED SELECTIVE PARP1 INHIBITORS” (Enliven Inc., priority 2022, published 2024).)
